How the values were obtained:
Type in all cases: cell-based
[1] = tested on: VMATs; experiment: VMAT uptake inhibition assay in PC12 cells; conditions: all at 30 µM, relative to inhibition by 30 µM reserpine
Experimental: VMAT uptake inhibition assays were conducted as previously described, with some modifications. In brief, […] PC12 cells per well were seeded in 24-well plates the day before experimentation. The cells were pretreated with 100 nM nisoxetine and mazindol to inhibit non-specific binding. PC12 cells were then preincubated with 200 µM digitonin to permeabilize membranes and were kept at room temperature on a plate shaker at low velocity for 30 min. Cells were treated with test drugs and shaken for another 10 min. Tritiated substrate (0.05 µM [^3H]5-HT) was added, and the cells incubated on the plate shaker for 30 min. To terminate uptake, cells were transferred into 1.5 ml Eppendorf tubes, centrifuged at 5000 rpm for 5 min. The supernatant was aspirated, cells were washed with cold KHB, recentrifuged and lysed with 200 µl SDS. The solutions were transferred into vials containing 2 ml scintillation cocktail and radioactivity was determined via beta-scintillation counting (Perkin Elmer, Waltham, MA, USA). For analysis, inhibitory potency of test drugs was normalized to uptake inhibition caused by the potent VMAT inhibitor reserpine.

[2] = biological target: T1, human DAT (Homo sapiens, UniProt Q01959); experiment: DAT uptake inhibition assay in HEK293 cells ([3H]MPP+); conditions: for DAT/SERT ratio: (1/DAT IC50)/(1/SERT IC50), higher values indicate higher DAT-selectivity
T1 construct: expressed in transfected cells
Experimental: (§1) Human embryonic kidney 293 (HEK293) cells stably expressing the human isoforms of either DAT or SERT were maintained in Dulbecco’s Modified Eagle Medium (DMEM), supplemented with 10% fetal calf serum at a subconfluent state in humidified atmosphere (5% CO2, 37 °C).
(§2) Uptake inhibition assays were performed as described earlier. Briefly, HEK293 cells stably expressing human SERT or DAT were seeded onto poly- D-lysine (PDL) coated 96-well plates (40,000 cells well^−1) the day before an experiment. Prior to the uptake inhibition assay, DMEM was replaced with Krebs-HEPES buffer (KHB, 25 mM HEPES, 120 mM NaCl, 5 mM KCl, 1.2 mM CaCl2, 1.2 mM MgSO4, and 5 mM D-glucose, pH 7.3) and the cells were preincubated with test drugs for 5 min at room temperature. Uptake assays were initiated by adding 20 nM [^3H]MPP^+ to DAT cells or 100 nM [^3H]5-HT to SERT cells. After 180 s (DAT) or 60 s (SERT), the tritiated substrate was removed by aspiration. Cells were washed once with ice-cold KHB, then lysed in 1% sodium dodecyl sulfate (SDS) and subjected to liquid scintillation counting to quantify tritium accumulated in each sample. Non-specific uptake was determined in the presence of mazindol (1 µM) for DAT or paroxetine (1 µM) for SERT and subtracted throughout.

[3] = biological target: T2, human SERT (Homo sapiens, UniProt P31645); experiment: SERT uptake inhibition assay in HEK293 cells ([3H]5-HT)
T2 construct: expressed in transfected cells
Experimental: as §1, §2

[4] = biological target: 5-HT2B receptor (Homo sapiens, UniProt P41595); experiment: 5-HT receptor-dependent induction of GCamP6s fluorescence in HEK293 cells; conditions: GCamP6s fluorescence normalized to 1 µM 5-HT
Experimental: (§3) All cloning steps were performed using NEB Builder (New England Biolabs, Frankfurt/Main, Germany). GCamP6s was cloned into pcDNA3.1. GCaMP is a genetically encoded calcium indicator which allows measurement of calcium flux. To allow for visual inspection of co-expressed 5-HT2 receptors, the enhanced cyan fluorescent protein (eCFP) was added to the C-Terminus of the 5-HT2 receptors. The resulting constructs were then cloned into pcDNA4-TO to allow tetracycline dependent expression.
(§4) In a first step, HEK293 cells were transfected with pcDNA6-TR and cells stably expressing the Tet-repressor were selected by the addition of blasticidin (60 µg ml^−1). In a second step, one of the resulting clones was transfected with one of the 5-HT2 receptor constructs and stable clones were selected by the addition of zeocin (150 µg ml^−1). Suitable clones were selected by visual inspection of the eCFP signal at the plasma membrane. In a last step, the eCFP positive clones were transfected with GCamp6s, and stable clones were selected using G418 (250 µg ml^−1). The resulting clones were sorted via FACS to isolate GCaMP6s (green fluorescent protein) positive cells and the resulting polyclonal cell lines were used for further experiments. Cells were maintained in DMEM supplemented with 2% fetal bovine serum, blasticidin, zeocin, and G418 at concentrations described above. To induce receptor expression, tetracycline (1 µg ml^−1) was added to the medium 18–24 h prior to the experiment.
(§5) Imaging experiments were performed at room temperature (22–27 °C). Medium was exchanged for KHB 10 min prior to the experiment and cells were continuously superfused with KHB, using a fast superfusion device (DAD12, ALA Scientific, Farmingdale, NY, USA). Test drugs (0.1, 1, 10 µM) or 5-HT (1 µM) were applied for 30 s, interleaved by KHB superfusion for 300 s. GCamp6s fluorescence was monitored using an inverted microscope (Nikon Eclipse Ti2) equipped with a Nikon ×40 WI (NA 1.25) objective (Nikon Europe, Amsterdam, Netherlands). Fluorescence was excited using a 470 nm LED (Coolled pe4000, Coolled, Andover, NY, USA). Excitation light was filtered through a 480/20 nm bandpass filter and reflected via 505 nm dichroic mirror. Emission light was filtered using a 535/25 nm optical bandpass filter (Nikon Europe, Amsterdam, Netherlands). Images were taken at a frequency of 1 image s^−1 with an exposure time of 20–30 ms using an sCMOS camera (Andor Zyla 5.5, Oxford Instruments, Abingdon, UK) and NIS-Elements 5.2 software (Laboratory Imaging, Praha, Czech Republic).
(§6) Image Stacks were background corrected by subtracting the mean intensity of […]. For each image the mean fluorescence intensity of 1–5 ROIs consisting of several clustered cells was measured. The change in intensity of the GCamP6s fluorescence was calculated as the intensity at the end of test drug application minus the intensity before substance application, normalized to the increase of fluorescence evoked by the application of 1 µM 5-HT. Data represent 1–5 fields of view from three independent experiments

[5] = biological target: T3, 5-HT2C receptor (Homo sapiens, UniProt P28335); experiment: as above; conditions: 1 µM; GCamP6s fluorescence normalized to 1 µM 5-HT
T3 construct: expressed in transfected cells
T3 sequence (P28335 33-458): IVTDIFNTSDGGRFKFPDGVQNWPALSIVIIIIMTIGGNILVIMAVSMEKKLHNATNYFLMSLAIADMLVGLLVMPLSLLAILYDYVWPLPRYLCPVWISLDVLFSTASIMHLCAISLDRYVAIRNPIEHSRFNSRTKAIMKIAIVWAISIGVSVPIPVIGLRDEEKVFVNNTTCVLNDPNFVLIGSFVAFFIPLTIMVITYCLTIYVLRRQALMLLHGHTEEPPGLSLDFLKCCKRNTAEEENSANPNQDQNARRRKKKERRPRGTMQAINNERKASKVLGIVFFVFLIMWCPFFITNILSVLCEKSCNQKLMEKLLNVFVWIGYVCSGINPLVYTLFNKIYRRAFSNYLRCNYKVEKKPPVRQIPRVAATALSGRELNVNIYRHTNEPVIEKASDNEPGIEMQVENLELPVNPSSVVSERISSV
Experimental: as §3, §4, §5, §6

[6] = biological target: T4, 5-HT2A receptor (Homo sapiens, UniProt P28223); experiment: as above; conditions: GCamP6s fluorescence normalized to 1 µM 5-HT
T4 construct: expressed in transfected cells
Experimental: as §3, §4, §5, §6

T1 sequence (Q01959 whole entry): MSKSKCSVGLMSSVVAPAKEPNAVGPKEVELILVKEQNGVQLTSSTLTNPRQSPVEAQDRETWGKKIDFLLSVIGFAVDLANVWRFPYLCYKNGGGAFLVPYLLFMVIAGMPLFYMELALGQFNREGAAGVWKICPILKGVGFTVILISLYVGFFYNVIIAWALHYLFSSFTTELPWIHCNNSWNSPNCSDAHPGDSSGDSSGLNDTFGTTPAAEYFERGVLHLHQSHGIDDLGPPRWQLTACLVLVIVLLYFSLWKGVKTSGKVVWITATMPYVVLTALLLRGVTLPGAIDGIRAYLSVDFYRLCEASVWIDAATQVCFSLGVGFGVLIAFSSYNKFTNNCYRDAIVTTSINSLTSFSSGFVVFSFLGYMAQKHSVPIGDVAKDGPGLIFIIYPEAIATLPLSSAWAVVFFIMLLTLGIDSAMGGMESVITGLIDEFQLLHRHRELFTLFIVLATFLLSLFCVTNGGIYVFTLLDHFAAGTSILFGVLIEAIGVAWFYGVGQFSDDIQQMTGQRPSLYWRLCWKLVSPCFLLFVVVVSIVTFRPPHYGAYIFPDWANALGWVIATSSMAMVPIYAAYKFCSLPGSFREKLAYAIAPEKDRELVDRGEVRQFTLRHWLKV
5-HT2B receptor, sequence (P41595 whole entry): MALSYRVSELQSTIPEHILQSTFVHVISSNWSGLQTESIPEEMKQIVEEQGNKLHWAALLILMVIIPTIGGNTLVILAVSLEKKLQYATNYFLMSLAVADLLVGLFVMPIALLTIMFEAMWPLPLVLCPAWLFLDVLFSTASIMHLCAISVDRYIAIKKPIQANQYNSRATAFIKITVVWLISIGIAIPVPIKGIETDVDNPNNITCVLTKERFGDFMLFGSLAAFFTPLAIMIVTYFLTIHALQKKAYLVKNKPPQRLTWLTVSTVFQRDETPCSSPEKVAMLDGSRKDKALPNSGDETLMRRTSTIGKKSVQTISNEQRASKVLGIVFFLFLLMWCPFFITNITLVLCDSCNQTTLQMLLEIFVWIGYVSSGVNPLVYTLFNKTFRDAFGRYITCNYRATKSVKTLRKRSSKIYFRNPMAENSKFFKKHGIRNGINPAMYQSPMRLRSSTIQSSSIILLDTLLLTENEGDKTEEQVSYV
T4 sequence (P28223 whole entry): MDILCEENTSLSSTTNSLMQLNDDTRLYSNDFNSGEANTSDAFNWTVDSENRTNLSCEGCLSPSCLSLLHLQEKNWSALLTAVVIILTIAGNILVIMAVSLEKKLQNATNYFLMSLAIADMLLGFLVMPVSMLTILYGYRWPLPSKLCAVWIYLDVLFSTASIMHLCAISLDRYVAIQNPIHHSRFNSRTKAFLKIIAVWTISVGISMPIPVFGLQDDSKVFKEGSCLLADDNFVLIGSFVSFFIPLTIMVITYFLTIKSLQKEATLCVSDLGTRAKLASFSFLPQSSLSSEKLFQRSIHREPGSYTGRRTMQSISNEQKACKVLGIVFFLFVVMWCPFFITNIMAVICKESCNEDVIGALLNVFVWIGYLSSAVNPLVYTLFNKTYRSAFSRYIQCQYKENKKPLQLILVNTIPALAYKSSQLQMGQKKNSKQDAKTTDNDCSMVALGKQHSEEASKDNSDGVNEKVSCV
T2 sequence (P31645 whole entry): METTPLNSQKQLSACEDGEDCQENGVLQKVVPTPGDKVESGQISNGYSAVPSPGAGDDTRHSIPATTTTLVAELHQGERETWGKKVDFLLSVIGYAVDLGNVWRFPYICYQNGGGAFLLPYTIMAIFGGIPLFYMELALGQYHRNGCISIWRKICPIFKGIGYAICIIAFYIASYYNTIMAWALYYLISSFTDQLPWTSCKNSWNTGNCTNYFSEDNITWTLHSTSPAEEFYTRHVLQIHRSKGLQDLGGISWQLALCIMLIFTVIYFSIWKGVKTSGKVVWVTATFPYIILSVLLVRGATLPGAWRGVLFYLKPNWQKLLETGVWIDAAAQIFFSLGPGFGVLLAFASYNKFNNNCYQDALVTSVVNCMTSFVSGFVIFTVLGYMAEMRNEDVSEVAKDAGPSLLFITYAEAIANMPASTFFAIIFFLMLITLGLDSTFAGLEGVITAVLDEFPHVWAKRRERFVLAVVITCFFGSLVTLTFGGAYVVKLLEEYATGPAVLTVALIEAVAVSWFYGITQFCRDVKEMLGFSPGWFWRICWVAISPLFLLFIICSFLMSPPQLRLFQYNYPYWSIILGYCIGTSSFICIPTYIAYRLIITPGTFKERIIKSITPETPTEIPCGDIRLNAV

SMILES | inhibition of VMAT-mediated transport compared to MDMA [1] | IC50 [2] [µM] | DAT/SERT ratio [2] | IC50 [3] [µM] | activation of 5-HT2B receptor ([4]; 1 µM) | activation of 5-HT2B receptor ([4]; 10 µM) | activation of 5-HT2C receptor [5] | activation of 5-HT2A receptor ([6]; 1 µM) | activation of 5-HT2A receptor ([6]; 10 µM)
Cc1ccc(C(=O)[C@H](C)N)cc1 [S-4-MC, 4-methylcathinone] | significantly less effective | 6.65 | 1.9 | 12.6 | neither test drug activated | moderate effects | neither test drug activated | neither test drug activated | displayed activity
CN[C@@H](C)C(=O)c1ccc(C(F)(F)F)cc1 [S-4-TFMMC, 4-trifluoromethyl-N-methylcathinone] | significantly less effective | 190 | 0.05 | 10.2 | neither test drug activated | – | neither test drug activated | neither test drug activated | –
